What was measured:
Assay in all cases: relative viability (nuclei count vs DMSO), 5 days (fraction); higher = more cells survive
[1] = compound: C[C@H]([C@@H](C(=O)N)NC(=O)[C@@H]1CSSC[C@@H](C(=O)N[C@H](C(=O)N[C@@H](C(=O)N[C@H](C(=O)N1)CCCCN)CC2=CNC3=CC=CC=C32)CC4=CC=C(C=C4)O)NC(=O)[C@@H](CC5=CC=CC=C5)N)O [CAP-232]
How it was run: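 Lung cancer cell lines received five library-drug doses (not always all listed) spaced by √10, pinned on vehicle-anchored 1536-well plates after an overnight stay at 37 °C. Five days later, with no medium change, nuclei were Hoechst-stained, imaged at 4× and counted with MetaXpress. Viability is treated-well nuclei relative to vehicle-well nuclei, as a median across plates. Passing plates had control CV below 25% and at least one doubling.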

[2] = compound: C[C@H]([C@@H](C(=O)N)NC(=O)[C@@H]1CSSC[C@@H](C(=O)N[C@H](C(=O)N[C@@H](C(=O)N[C@H](C(=O)N1)CCCCN)CC2=CNC3=CC=CC=C32)CC4=CC=C(C=C4)O)NC(=O)[C@@H](CC5=CC=CC=C5)N)O [CAP-232] + COc1cccc2cc(-c3nc([C@H]4CC[C@H](C(=O)O)CC4)n4ncnc(N)c34)[nH]c12 [OSI-027] (partner 0.5 µM)
How it was run: (§1)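 Lung cancer cell lines in 1536-well plates got either a single drug or a fixed anchor-drug dose together with five library-drug doses (not always all listed) in √10 steps, by pin tool, on the day after seeding. Nuclei were counted after 5 days, and relative viability is the treated-to-vehicle ratio of nuclei counts. Values are medians of duplicate plates.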

[3] = compound: C[C@H]([C@@H](C(=O)N)NC(=O)[C@@H]1CSSC[C@@H](C(=O)N[C@H](C(=O)N[C@@H](C(=O)N[C@H](C(=O)N1)CCCCN)CC2=CNC3=CC=CC=C32)CC4=CC=C(C=C4)O)NC(=O)[C@@H](CC5=CC=CC=C5)N)O [CAP-232] + Nc1ncn([C@H]2C[C@H](O)[C@@H](CO)O2)c(=O)n1 [Decitabine] (partner 2 µM)
How it was run: as §1

[4] = compound: C[C@H]([C@@H](C(=O)N)NC(=O)[C@@H]1CSSC[C@@H](C(=O)N[C@H](C(=O)N[C@@H](C(=O)N[C@H](C(=O)N1)CCCCN)CC2=CNC3=CC=CC=C32)CC4=CC=C(C=C4)O)NC(=O)[C@@H](CC5=CC=CC=C5)N)O [CAP-232] + CC1(C)CCC(c2ccc(Cl)cc2)=C(CN2CCN(c3ccc(C(=O)NS(=O)(=O)c4ccc(N[C@H](CCN5CCOCC5)CSc5ccccc5)c(S(=O)(=O)C(F)(F)F)c4)cc3)CC2)C1 [Navitoclax] (partner 0.5 µM)
How it was run: as §1

[5] = compound: C[C@H]([C@@H](C(=O)N)NC(=O)[C@@H]1CSSC[C@@H](C(=O)N[C@H](C(=O)N[C@@H](C(=O)N[C@H](C(=O)N1)CCCCN)CC2=CNC3=CC=CC=C32)CC4=CC=C(C=C4)O)NC(=O)[C@@H](CC5=CC=CC=C5)N)O [CAP-232] + CS(=O)(=O)N1CCN(Cc2cc3nc(-c4cccc5[nH]ncc45)nc(N4CCOCC4)c3s2)CC1 [Pictilisib] (partner 1 µM)
How it was run: as §1

In the case of SK-MES-1, the relative viability ([1]; 0.4 µM) is reported as 1.02, the relative viability ([1]; 1.265 µM) is reported as 1.06 and the relative viability ([1]; 4 µM) is reported as 1.01. For the same cell line, the relative viability ([1]; 12.65 µM) was 0.904, the relative viability ([2]; first compound 0.4 µM) was 0.696 and the relative viability ([2]; first compound 1.265 µM) was 0.557. The relative viability ([2]; first compound 4 µM) was 0.583, the relative viability ([2]; first compound 12.65 µM) was 0.264 and the relative viability ([3]; first compound 0.4 µM) was 0.452. The relative viability ([3]; first compound 1.265 µM) was 0.344, the relative viability ([3]; first compound 4 µM) was 0.384 and the relative viability ([3]; first compound 12.65 µM) was 0.274. The relative viability ([4]; first compound 0.4 µM) was 1.28, the relative viability ([4]; first compound 1.265 µM) was 1.17 and the relative viability ([4]; first compound 4 µM) was 1.45. The relative viability ([4]; first compound 12.65 µM) was 1.1, the relative viability ([5]; first compound 0.4 µM) was 0.335 and the relative viability ([5]; first compound 1.265 µM) was 0.379. The relative viability ([5]; first compound 4 µM) was 0.32 and the relative viability ([5]; first compound 12.65 µM) was 0.323.

For SW 1573, the relative viability ([1]; 0.4 µM) was 0.909, the relative viability ([1]; 1.265 µM) was 0.928 and the relative viability ([1]; 4 µM) was 1.06. The relative viability ([1]; 12.65 µM) was 0.495, the relative viability ([2]; first compound 0.4 µM) was 0.612 and the relative viability ([2]; first compound 1.265 µM) was 0.785. The relative viability ([2]; first compound 4 µM) was 0.678, the relative viability ([2]; first compound 12.65 µM) was 0.111 and the relative viability ([3]; first compound 0.4 µM) was 0.48. The relative viability ([3]; first compound 1.265 µM) was 0.534, the relative viability ([3]; first compound 4 µM) was 0.45 and the relative viability ([3]; first compound 12.65 µM) was 0.169. The relative viability ([4]; first compound 0.4 µM) was 0.912, the relative viability ([4]; first compound 1.265 µM) was 1.1 and the relative viability ([4]; first compound 4 µM) was 0.988. The relative viability ([4]; first compound 12.65 µM) was 0.635, the relative viability ([5]; first compound 0.4 µM) was 0.437 and the relative viability ([5]; first compound 1.265 µM) was 0.587. For the same cell line, the relative viability ([5]; first compound 4 µM) was 0.54 and the relative viability ([5]; first compound 12.65 µM) was 0.395.

UMC-11 was tested, and the relative viability ([1]; 0.4 µM) was 0.917, the relative viability ([1]; 1.265 µM) was 0.914 and the relative viability ([1]; 4 µM) was 1.08. For the same cell line, the relative viability ([1]; 12.65 µM) was 0.95, the relative viability ([2]; first compound 0.4 µM) was 0.474 and the relative viability ([2]; first compound 1.265 µM) was 0.484. The relative viability ([2]; first compound 4 µM) was 0.517, the relative viability ([2]; first compound 12.65 µM) was 0.39 and the relative viability ([3]; first compound 0.4 µM) was 0.55. It also gave a relative viability ([3]; first compound 1.265 µM) of 0.55, a relative viability ([3]; first compound 4 µM) of 0.581 and a relative viability ([3]; first compound 12.65 µM) of 0.671. The relative viability ([4]; first compound 0.4 µM) was 0.317, the relative viability ([4]; first compound 1.265 µM) was 0.307 and the relative viability ([4]; first compound 4 µM) was 0.295. The relative viability ([4]; first compound 12.65 µM) was 0.297, the relative viability ([5]; first compound 0.4 µM) was 0.775 and the relative viability ([5]; first compound 1.265 µM) was 0.796. It also gave a relative viability ([5]; first compound 4 µM) of 1 and a relative viability ([5]; first compound 12.65 µM) of 0.876.
